Data: paper PMC7206685, “Interactions between host biogenic amines and sand fly salivary yellow-related proteins” (Parasites & Vectors, 2020)

Molecular target: T1, PagSP04 (Phlebotomus argentipes, UniProt Q0ZSU5)
T1 construct: secreted recombinant protein from HEK293S GnTI- cells (pTW5sec); IMAC and size exclusion
T1 sequence (Q0ZSU5 19-398): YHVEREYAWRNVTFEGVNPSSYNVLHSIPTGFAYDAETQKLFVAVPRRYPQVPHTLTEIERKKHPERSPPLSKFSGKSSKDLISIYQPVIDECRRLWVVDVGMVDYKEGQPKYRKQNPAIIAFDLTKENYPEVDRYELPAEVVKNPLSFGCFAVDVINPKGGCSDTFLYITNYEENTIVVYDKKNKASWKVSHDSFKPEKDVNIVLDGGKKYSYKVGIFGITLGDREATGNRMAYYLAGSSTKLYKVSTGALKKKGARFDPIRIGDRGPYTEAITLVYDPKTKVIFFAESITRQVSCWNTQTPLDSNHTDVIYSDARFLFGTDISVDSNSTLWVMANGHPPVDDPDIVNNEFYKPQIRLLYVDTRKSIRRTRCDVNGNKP
Assay: microscale thermophoresis
Type: binding
Description: microscale thermophoresis on PagSP04

Structure (SMILES)	Kd [µM]
NCCc1c[nH]cn1 [Histamine]	9.3
NCCc1c[nH]c2ccc(O)cc12 [Serotonin]	0.0869
